Results from patent US20250127727A1, “IONIZABLE LIPIDS WITH BIOACTIVE MOTIFS” (GEORGIA TECH RESEARCH CORPORATION, priority 2021, published 2025).

System: Ai14 mice
Experiment: Normalized delivery and fold enrichment from DNA barcode sequencing of tdTomato+ cells
Assay type: in vivo
Conditions: by LNP component; pool of 65 LNPs
Procedure: Following characterization of the pool of 65 Pi-LNPs, the LNPs were injected into Ai14 mice at a total nucleic dose of 1.5 mg/kg (averaging a 0.023 mg total nucleic acid/kg/particle, for all 65 Pi-LNPs) (FIG. 2A). The Ai14 mice have a Lox-Stop-Lox-tdTomato construct downstream of a CAG promoter. Thus, if Cre mRNA is delivered into a target cell and is subsequently functionally translated into Cre protein, the cells become tdTomato+ (FIG. 2A). By isolating tdTomato+ cells using fluorescence-activated cell sorting (FACS, FIG. 4, FIG. 5) and sequencing the cells using next-generation sequencing, it was possible to isolate the DNA barcodes, associated with specific LNPs, within cells that were functionally transfected with Cre mRNA 26, 36-38 Three days after injection, liver, spleen, lung, and kidney were isolated and quantified the percentage of tdTomato+ cells from 14 different cell populations (FIG. 2B). […] The percentage of tdTomato+ quantified in liver endothelial cells and dendritic cells was <5%, and no delivery in lung and kidney was observed. […] From the barcode raw counts obtained through sequencing, the normalized delivery of each individual barcode was calculated. Briefly, the normalized delivery of a given barcode was calculated as the number of counts for that barcode divided by the counts for all N barcodes (Tables 1-3, below). […]

Which “fold enrichment (odds of being in top or bottom 10% of LNPs)” value does the source give for CC(C)CCC[C@@H](C)[C@H]1CC[C@H]2[C@@H]3CC=C4C[C@@H](O)CC[C@]4(C)[C@H]3CC[C@]12C [cholesterol] here?
Its value is “outperformed 20α-OH cholesterol”.
